Test [1] has as its system mosquitoes, beetles, and termites. As to conditions: known from prior knowledge; cited from earlier work.
Test [2] concerns female house mice, Mus musculus (strain: CD-1). Briefly: Two-choice T-tube olfactometer bioassay: deterrence from approaching and feeding on a food bait. In kind it is in vivo. As to conditions: Experiments 1 to 12; single test stimulus 100 μl or 100 mg on cotton ball next to food bait vs unscented chamber. From the text: Female house mice, Mus musculus (strain: CD-1®), were obtained from Charles River Laboratories Ltd (Saint-Constant, QC J5A 2E7, Canada) and cared for by Animal Care Services of Simon Fraser University (“SFU”). On arrival, mice were assigned to four groups of five female mice each. Each group was accommodated in cages (50 cm×40 cm×20 cm) lined with commercial corn cob bedding (Anderson's Bed o'cobs, The Andersons Inc. Maumee, Ohio 43537, USA), provided with Nalgene toys, running wheels (Jamieson's Pet Food Distributors, Ltd, Delta, BC V4G 1C9, Canada), and provisioned with commercial rodent food (LabDiet® Certified Rodent Diet, LabDiet®, St Louis, Mo. 63144, USA) as well as water ad libitum. Cages were maintained at a temperature of 21° C. and a relative humidity of 50%. A reverse photoperiod (12 hours light; 12 hours dark) was maintained to facilitate behavioral bioassays during normal working hours. […]
FIG. 3 depicts data obtained by additional testing of those plant essential oils found most promising in pre-screening experiments (Experiments 2, 5, 8, 9, and 11), running a total of 8 replicates for each of experiments 2, 5, 8, 9 and 11. First-choice, first-fed, and time-spent data were analyzed using g-tests and Student's t-tests, respectively, for these experiments. […]

`C=CCc1ccc(O)c(OC)c1` [Eugenol]: in test [1], the repellency to insects entry was “repellent”.
With `CC1CCC(C(C)C)C(O)C1` (centres unmarked) [menthol, Menthol], in test [2], the “first fed (scented chamber fed in first by mice)” value is recorded as “never fed in first”.

Source of the values: patent US20220087247A1, “MOUSE REPELLENTS, DEVICES, AND METHODS OF USING SUCH” (priority 2020, published 2022).
